Data from patent US9527889B2, “RFamide-related peptides and methods thereof” (THE REGENTS OF THE UNIVERSITY OF MICHIGAN, priority 2010, dated 2016).
“Also recorded” adds a separate entry of the source. Residues, ends and D or L forms follow the SMILES beside them. No end group written: not given here.

Key:
[1] = tested on: isolated adult rabbit cardiac myocytes; test: Sarcomere shortening in isolated adult rabbit cardiac myocytes; assay type: cell-based; settings: pacing at 0.5 Hz and 1 Hz
Experimental: FIG. 7. A. Representative sarcomere shortening traces in isolated adult rabbit cardiac myocytes paced at 0.5 Hz. A signal-averaged recording from 10 traces was made in myocytes 1 day after isolation (n=3). Recordings show shortening before and 15 minutes after initiating perfusion with 10^−10 M hRFRP-1 or media (control) at 37° C.
Adult rat and rabbit ventricular cardiac myocytes were isolated as previously described (Westfall, M. V. Et al. (1997), Westfall, M. V. and Borton, A. R. (2003)). Hearts from Sprague-Dawley rats and New Zealand white rabbits were perfused and enzymatically digested to isolate myocytes; the protocol was approved by The University of Michigan University Committee on Use and Care of Animals (UCUCA) in accordance with university and federal regulatory guidelines. […]
Sarcomere shortening was detected using a video-based detection system (IonOptix, MA, USA) as described earlier (Westfall, M. V. and Borton, A. R. (2003)). […] Signal averaged data were analyzed to determine resting sarcomere length, shortening amplitude (peak shortening), shortening rate (departure velocity), and re-lengthening rate (return velocity), as previously described (Westfall, M. V. Et al. (1997), Westfall, M. V. and Borton, A. R. (2003)), in 7-20 myocytes from 3-4 rats for each peptide concentration, bis-1, and media.

[2] = tested on: isolated adult rat cardiac myocytes; assay type: cell-based; settings: peptides at 10^−8M or 10^−7M; peak shortening, departure and return velocity
Excerpt: Adult rat and rabbit ventricular cardiac myocytes were isolated as previously described (Westfall, M. V. Et al. (1997), Westfall, M. V. and Borton, A. R. (2003)). Hearts from Sprague-Dawley rats and New Zealand white rabbits were perfused and enzymatically digested to isolate myocytes; the protocol was approved by The University of Michigan University Committee on Use and Care of Animals (UCUCA) in accordance with university and federal regulatory guidelines. Aliquots of isolated ventricular myocytes were plated on laminin-coated glass coverslips in serum-containing Dulbecco's Modified Eagle Media (Invitrogen, CA, US) supplemented with 5% fetal bovine serum, and 50 U/ml penicillin and 50 μg/ml streptomycin (pen/strep; Sigma-Aldrich, MO, US). Two hours later, media was replaced with serum-free M199 (Invitrogen) supplemented with 1.8 mM Ca^2+, 10 mM HEPES, 10 mM glutathione, and pen/strep. Rat myocytes were transferred to a stimulation chamber and electrically paced the day after isolation (Zornik, E. Et al. (1999), Westfall, M. V. Et al. (1997)). Media was changed daily for all myocyte preparations.
Sarcomere shortening was detected using a video-based detection system (IonOptix, MA, USA) as described earlier (Westfall, M. V. and Borton, A. R. (2003)). Rat myocytes were paced at 0.2 Hz and rabbit myocytes were paced at 0.5 Hz or 1.0 Hz for these studies. Recordings were made prior to application of each peptide concentration, the protein kinase C (PKC) inhibitor bisindolylmaleimide-1, (bis-1; CalBiochem/EMD, NJ, US), or media only (control, C) and at 1, 3, 5, 10 and 15 minutes after application of peptide, bis-1, or media. Signal averaged data were analyzed to determine resting sarcomere length, shortening amplitude (peak shortening), shortening rate (departure velocity), and re-lengthening rate (return velocity), as previously described (Westfall, M. V. Et al. (1997), Westfall, M. V. and Borton, A. R. (2003)), in 7-20 myocytes from 3-4 rats for each peptide concentration, bis-1, and media.

[3] = tested on: mouse heart; test: Echocardiography in mice after tail-vein injection; assay type: in vivo
Experimental: Echocardiograms were performed as previously described (Boluyl, M. O. Et al. (2004)) according to the recommendations of the American Society of Echocardiography. All echocardiography was performed by one registered echocardiographer. Female C57BL/6 mice were weighed to accurately calculate the amount of peptide delivered per kilogram body weight (kg bw). Animal use for echocardiography was approved by The University of Michigan UCUCA in accordance with university and federal regulatory guidelines. Physiological saline or peptide was intravenously delivered via tail-vein injections to a total volume of 150 μl to achieve 5 μmols or 500 ηmols hRFRP-1/kg bw. Each animal was used only once for an injectant, either physiological saline or peptide (n=4-5). […] Heart rate along with left ventricular end-systolic and end-diastolic dimensions were measured from the two-dimensional sector scans obtained from the parasternal long axis and apical four chamber views using the conventions of the American Society of Echocardiography. […] Left ventricular volumes were measured at end systole (Vols) and end diastole (Vold) and used to calculate stroke volume (SV=Vold−Vols) and ejection fraction (EF %=endocardial SV/endocardial Vold×100). Cardiac output (CO=endocardial SV×heart rate) was calculated from stroke volume and heart rate. […]

Molecule | arrhythmic beats and after-contractions [1] | character relative to hRFRP-1 on myocyte contractile function (agonist, antagonist, reverse agonist; in words) [2] | effect on the hRFRP-1-induced decrease of contractile performance in vivo ([3]; given with hRFRP-1, tail-vein injection) | effect on cardiac function in vivo when applied alone (echocardiographic parameters) ([3]; tail-vein injection)
CSCC[C@H](N)C(=O)N1CCC[C@H]1C(=O)N[C@@H](Cc1cnc[nH]1)C(=O)N[C@@H](CO)C(=O)N[C@@H](Cc1ccccc1)C(=O)N[C@@H](C)C(=O)N[C@@H](CC(N)=O)C(=O)N[C@@H](CC(C)C)C(=O)N1CCC[C@H]1C(=O)N[C@@H](CC(C)C)C(=O)N[C@@H](CCCNC(=N)N)C(=O)N[C@@H](Cc1ccccc1)C(N)=O [hRFRP-1] (H-MPHSFANLPLRF-NH2) | not observed | – | – | –
LPLAFamide (LPLAF-NH2) | – | hRFRP-1 antagonist | blocked the effects of hRFRP-1 | slight increase in cardiac function; also recorded: enhances cardiac function
